Results on three compounds are retold here after patent US7601733B2, “5(S)-(2′-hydroxyethoxy)-20(S)-camptothecin and its preparation and use for the treatment of cancer” (priority 2006, dated 2009).

For data set [1], the system named is NCI-H460 xenografts. The experiment in a line: NCI-H460 xenograft study in nude mice. The data set is classed as in vivo. The settings on record: oral, (d×5)2 schedule, deaths/animals. Here is the method:
Protocol of Comparison Study of 5(RS)-(2′-hydroxyethoxy)-20(S)-camptothecin and 5(S)-(2′-hydroxyethoxy)-20(S)-camptothecin Against NCl-H460 Xenograft in Nude Mice:
Ti is the mean tumor volume.
Percentage tumor growth inhibition was calculated using the formula: Percentage Tumor growth inhibition=100−% T/C.
The other parameter observed was mortality.

Data set [2] deals with Saos-2 cells over expressing non-functional BCRP mut#10. Format: cell-based, human. As to the method:
(§1) Protocol for Breast Cancer Resistance Protein (BCRP) Assay:
(§2) The anticancer effect of 5(S)-(2′-hydroxyethoxy)-20(S)-camptothecin & 5(R)-(2′-hydroxyethoxy)-20(S)-camptothecin were evaluated versus the racemate 5(RS)-(2′-hydroxyethoxy)-20(S)-camptothecin on Saos-2 cells over expressing functional BCRP#4 and non-functional BCRP mut#10. The human osteosarcoma cell line, Saos-2, was obtained from ATCC (American Type Culture Collection, Cat#HTB-85, Manassas, Va.) and were maintained in DMEM containing 10% fetal bovine serum, 1% penicillin/streptomycin, and 2 mM glutamine. Saos-2 cells were transfected with either BCRP#4 to over express functional BCRP or BCRP#10 to over express non-functional BCRP transporter. The cells were plated in 96-well plates at a density of 1000 cells per each well in a 0.1 ml of medium and allowed to attach overnight. The next morning the medium was gently aspirated and serial dilutions of the compounds to be tested were added. The cells were incubated at 37° C. in a 5% CO2 incubator. […] The amount of the fluorescent dye produced was measured on a Cytofluor® 2300(Millipore, Bedford, Mass.) using an excitation wavelength of 530 nm and emission wavelength of 590 nm. The relative fluorescence units obtained were used to calculate the percentage growth at each concentration in relation to the untreated control values. […]

In data set [3] the test system is Saos-2 cells over expressing functional BCRP#4. The data set is classed as cell-based, human. Here is the method:
as §1, §2

The subject of data set [4] is Human bone marrow mononuclear cells. The experiment in a line: Human bone marrow assay (CFU-GM colony inhibition). The data set is classed as cell-based. The settings on record: relative to 5(R) diastereoisomer. As to the method: Protocol for Human Bone Marrow Assay:
Methocult™ GF (Cat No: H4534, Poietics, Biowhittakar, USA) medium comprising Methycellulose in Iscove's MDM, Fetal bovine serum, Bovine serum albumin, 2-Mercaptoethanol, L-Glutamine, rhStem cell factor, rhGM-CSF and rhIL-3 was used for the assay. Human bone marrow mononuclear cells (Cat No. 2M-125C, Poietics, Biowhittakar, USA) were mixed with Methocult GF and the cell density was adjusted to 3×10^5 cells/ml. From this preparation, 500 μL aliquots were made and 2.5 μL of 20× drug solution or vehicle was added to each aliquot and mixed thoroughly. 100 μL of clonogenic medium was plated into each well and the plates were allowed to gel at 4° C. for 15 minutes. Plates were incubated at 37° C. in a fully humidified atmosphere of 5% CO2 in an incubator for 14 days. CFU-GM colonies were counted under an inverted microscope as aggregates of 50 cells or more. The percentage colony inhibition was calculated using the following formula: 100−[(number of colonies in drug treated wells/Number of colonies in control wells)×100].
The in vitro potency of the two diastereomers against cancer cell lines had been compared with their in vitro toxicity in healthy cells.

The conditions of data set [5]: cited from earlier work.

`CC[C@@]1(O)C(=O)OCc2c1cc1n(c2=O)C(OCCO)c2cc3ccccc3nc2-1` (mixture of isomers) [4(S)-Ethyl-4-hydroxy-12(RS)-(2-hydroxyethoxy)-1,12-dihydro-4H-2-oxa-6,12a-diaza-dibenzo[b,h]fluorine-3,13-dione, reference compound]: the Mortality in data set [1] (2 mg/kg) and in data set [1] (4 mg/kg) was 0/5 throughout.
Take `CC[C@@]1(O)C(=O)OCc2c1cc1n(c2=O)[C@@H](OCCO)c2cc3ccccc3nc2-1` [4-(S)-Ethyl-4-hydroxy-12(S)-(2-hydroxyethoxy)-1,12-dihydro-4H-2-oxa-6,12a-diazadibenzo[b,h] fluorene-3,13-dione]: the Mortality in data set [1] (2 mg/kg) and in data set [1] (4 mg/kg) was 0/5 in each case. The entries for the “fold more cytotoxic than 5(R)-(2′-hydroxyethoxy)-20(S)-camptothecin” value in data set [2] and in data set [3] were approximately 6 fold and more than 2.5 fold, respectively. Besides, the “safety margin (GI90/GI50) compared with that of the 5(R) diastereoisomer” value in data set [4] is on record as “over twice”.
Turning to `CC[C@@]1(O)C(=O)OCc2c1cc1n(c2=O)Cc2cc3ccccc3nc2-1` [camptothecin, Camptothecin], the water solubility result in data set [5] was “poorly water soluble”.
